Data reported in the NIST ThermoML archive (doi:10.1016/j.jct.2013.08.034).
Numbers after ± are expanded uncertainties.

Assays:
[1] = Liquid; for electrical conductivity / viscosity: 101 kPa; for electrical conductivity: Conductivity Meter Jenco 3107; for viscosity: Cone and plate viscometry; for mass density: 101.33 kPa, Vibrating tube method
[2] = xn = mol fraction of the nth substance listed; settings: 101 kPa, Liquid, x1 = 1; for electrical conductivity: Conductivity Meter Jenco 3107; for viscosity: Cone and plate viscometry

SMILES	viscosity ([1]; 293.15 K) [mPa·s]	mass density ([1]; 293.15 K) [kg/m3]	viscosity ([1]; 298.15 K) [mPa·s]	mass density ([1]; 298.15 K) [kg/m3]	viscosity ([1]; 303.15 K) [mPa·s]	mass density ([1]; 303.15 K) [kg/m3]	viscosity ([1]; 308.15 K) [mPa·s]	mass density ([1]; 308.15 K) [kg/m3]	viscosity ([1]; 313.15 K) [mPa·s]	mass density ([1]; 313.15 K) [kg/m3]	viscosity ([1]; 318.15 K) [mPa·s]	mass density ([1]; 318.15 K) [kg/m3]	viscosity ([1]; 323.15 K) [mPa·s]	mass density ([1]; 323.15 K) [kg/m3]	viscosity ([1]; 328.15 K) [mPa·s]	viscosity ([1]; 333.15 K) [mPa·s]	also measured
CCCC[n+]1ccn(C)c1.O=S(=O)([N-]S(=O)(=O)C(F)(F)F)C(F)(F)F	62.08 ± 6.2	1439.27 ± 0.62	50.05 ± 5	1434.3 ± 0.61	41.24 ± 4.2	1429.4 ± 0.61	33.65 ± 3.4	1424.57 ± 0.6	28.28 ± 2.8	1419.61 ± 0.6	23.91 ± 2.4	1414.67 ± 0.6	20.64 ± 2.1	1409.65 ± 0.59	17.9 ± 1.8	15.51 ± 1.6	electrical conductivity ([1]; 293.15 K): 0.337 ± 0.01 S/m; electrical conductivity ([1]; 298.15 K): 0.4 ± 0.012 S/m; electrical conductivity ([1]; 303.15 K): 0.472 ± 0.014 S/m; electrical conductivity ([1]; 308.15 K): 0.552 ± 0.017 S/m; electrical conductivity ([1]; 313.15 K): 0.64 ± 0.019 S/m; electrical conductivity ([1]; 318.15 K): 0.733 ± 0.022 S/m; electrical conductivity ([1]; 323.15 K): 0.835 ± 0.025 S/m; electrical conductivity ([1]; 328.15 K): 0.944 ± 0.028 S/m
CCCC[n+]1ccn(C)c1.O=S(=O)([N-]S(=O)(=O)C(F)(F)F)C(F)(F)F + CC1COC(=O)O1	–	–	–	–	–	–	–	–	–	–	–	–	–	–	–	–	electrical conductivity ([2]; 293.15 K): 0.337 ± 0.01 S/m; viscosity ([2]; 293.15 K): 62.08 ± 6.2 mPa·s; electrical conductivity ([2]; 298.15 K): 0.4 ± 0.012 S/m; viscosity ([2]; 298.15 K): 50.05 ± 5 mPa·s; electrical conductivity ([2]; 303.15 K): 0.472 ± 0.014 S/m; viscosity ([2]; 303.15 K): 41.24 ± 4.2 mPa·s; electrical conductivity ([2]; 308.15 K): 0.552 ± 0.017 S/m; viscosity ([2]; 308.15 K): 33.65 ± 3.4 mPa·s; electrical conductivity ([2]; 313.15 K): 0.64 ± 0.019 S/m; viscosity ([2]; 313.15 K): 28.28 ± 2.8 mPa·s; electrical conductivity ([2]; 318.15 K): 0.733 ± 0.022 S/m; viscosity ([2]; 318.15 K): 23.91 ± 2.4 mPa·s; electrical conductivity ([2]; 323.15 K): 0.835 ± 0.025 S/m; viscosity ([2]; 323.15 K): 20.64 ± 2.1 mPa·s; electrical conductivity ([2]; 328.15 K): 0.944 ± 0.028 S/m; viscosity ([2]; 328.15 K): 17.9 ± 1.8 mPa·s; viscosity ([2]; 333.15 K): 15.51 ± 1.6 mPa·s
CC1COC(=O)O1 (configuration not stated) [4-methyl-1,3-dioxolan-2-one]	2.86 ± 0.29	1204.81 ± 0.41	2.65 ± 0.27	1199.02 ± 0.4	2.44 ± 0.24	1194 ± 0.4	2.23 ± 0.22	1188.57 ± 0.39	2.05 ± 0.21	1183.11 ± 0.39	1.9 ± 0.19	1177.55 ± 0.38	1.78 ± 0.18	1171.96 ± 0.38	1.63 ± 0.16	1.54 ± 0.15	–
